Data from paper PMC7956560, “New 3-Aryl-2-(2-thienyl)acrylonitriles with High Activity Against Hepatoma Cells” (International Journal of Molecular Sciences, 2021).

How the values were obtained:
HepG2 cells [1] = experiment: Colony-formation assay; assay type: cell-based, human
Protocol: HepG2 cells were seeded in 6-well plates at a density of 300 cells/well and allowed to attach overnight. […] Then, the plates were washed twice with PBS, fixed with 4% formaldehyde for 1 h, and stained with 0.5% crystal violet for 3 min. Excessive crystal violet was washed out and the colonies were counted under the microscope. A colony was defined as a cell aggregate with 50 or more cells. Representative images were taken with a kappa digital camera system (Kappa Optronics GmbH, Germany). A total of n = 3 experiments were performed, and significance was tested by one-way ANOVA assays.

[2] = test system: panel of 43 human protein kinases; experiment: Enzymatic kinase panel screening; assay type: biochemical; settings: 10 µM compound
Protocol: The kinase inhibiting potency of compound 1a, 1b and 1c (10 µM) was screened in a cell-free kinase assay, which consisted of a custom panel of 43 human protein kinases for 1c (listed in Figure 5A), as well as a subpanel of six kinases for 1a and 1b (Figure 5B). The initial panel was chosen to screen the lead compound 1c based on the union of two strategies. A total of 29 kinases were selected based on the correlated results of three in silico target prediction methods including structure- as well as ligand-based techniques and 20 kinases because of their relevance for HCC (note that six kinases were part of both strategies).
The assay was performed by Eurofins KinaseProfilerTM service (Eurofins, France) and the determination of enzymatic activity was assessed as previously described. Additionally, an IC50 determination of compound 1c against the VEGFR-2 was performed with a concentration range of 0.003 to 30 µM.

[3] = test system: human HepG2 hepatoblastoma cells; experiment: Growth inhibition, crystal violet staining, HepG2; assay type: cell-based; settings: 48 h incubation, mean ± SD, read-out: Anti-proliferative activity IC50, HepG2
Protocol: The well-differentiated p53 wild-type human hepatoblastoma cell line HepG2 (ATCC# 8065) and the highly differentiated p53 mutated human hepatocellular carcinoma cell line Huh-7 (JCRB#0403) were grown in RPMI 1640 medium supplemented with 10% fetal bovine serum and 100 U/mL penicillin and […] streptomycin. Murine AML-12 hepatocytes were obtained from ATCC (CRL-2254) and grown in DMEM/F-12 Glutamax medium supplemented with 10% fetal bovine serum, 10 µg/mL insulin, 5.5 µg/mL transferrin, 5 ng/mL selenium (Gibco ITS-G 100X) and 40 ng/mL dexamethasone (Sigma-Aldrich). All cell lines were incubated in a 37 °C, 5% CO2, 95% humidified atmosphere.
Treatment-induced changes in cell number were evaluated by crystal violet staining, as previously described. Briefly, 1.500 cells per well were seeded in 96-well plates for 24 h at 37 °C, 5% CO2. For the experiments with HepG2 and Huh-7 cell lines, cells were incubated with rising concentrations (0–20 µM) of the new compounds (1a–1o) for 48 h. AML12-cells were treated with compounds 1a, 1b, 1c, 1e, 1i and 1j for 48 h and at concentrations ranging from 0.5–64 µM. Thereafter, the cells were fixed with 1% glutaraldehyde and stained with 0.1% crystal violet (Sigma-Aldrich). The unbound dye was removed by rinsing with water. Bound crystal violet was solubilized with 0.2% Triton X-100 (Sigma-Aldrich). Light extinction of crystal violet, which increases linearly with cell number, was analyzed at 570 nm using an ELISA-Reader (Dynex Technologies, Denkendorf, Germany). All experiments were carried out in duplicate or triplicate.

HepG2 cells [4] = experiment: LDH release assay (unspecific cytotoxicity); assay type: cell-based, human; settings: HepG2, 0.5 and 10 µM, 12 or 24 h
Protocol: Unspecific cytotoxicity induced by treatment with 0.5 µM and 10 µM of 1a, 1b, 1c and sorafenib (LC Laboratories, Woburn, MA, USA) was determined by measuring the release of lactate dehydrogenase (LDH) from HepG2 cells into the supernatant after 12 and 24 h (Cytotoxicity Detection KitPLUS LDH, Roche Diagnostics GmbH, Mannheim, Germany). The supernatant of treated samples was collected, and adherent non-treated cells were lysed with 2% Triton X-100 for 10 min to determine the maximum LDH release. All samples were mixed with catalyst and dye solution for 30 min, resulting in the formation of formazan dye proportional to LDH enzyme activity. The absorbance was measured at 490/630 nm using an ELISA reader (Dynex Technologies, Denkendorf, Germany) and cytotoxicity was determined by subtracting the percentage of LDH release under control conditions of those from treated samples. Experiments were performed in duplicate and data are given as mean percentage changes ± SD as compared to controls of n = 3 experiments.

## COc1ccc(C=C(C#N)c2cccs2)cc1O [Compound 1c, 2-[1-Cyano-2-(3-hydroxy-4-methoxyphenyl)-(E)-ethenyl)]-thiophene]
HepG2 cells [1]; 1, 5, 10 µM, 14 days
  effect on HepG2 colony formation (in words): significantly inhibited HepG2 colony formation
HepG2 cells [1]; HepG2, after two weeks
  inhibition of colony formation: ~100%
[2]
  number of the 43 kinase targets inhibited by more than 50%: six
[3]
  IC50: 550 ± 260 nM
HepG2 cells [4]
  LDH release / unspecific cytotoxicity (in words): do not exert considerable unspecific cytotoxicity
